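All cell lines were grown in 96-well plates and treated with compound for 48 hours. GI50 marks 50% less growth.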 Activity calls are given as the source filed them. Rule as the data show it: active = GI50 up to about 1.1 µM and inactive = higher.
Experiments:
Assay in all cases: growth of human tumour cells (NCI), 48 h
HCC 2998 = tested on: HCC 2998
HL-60 = tested on: HL-60
MOLT-4 = tested on: MOLT-4
CAKI-1 = tested on: CAKI-1
SNB-75 = tested on: SNB-75
M14 = tested on: M14
SN12C = tested on: SN12C
Malme-3M = tested on: Malme-3M
MDA-MB-231 = tested on: MDA-MB-231
SW-620 = tested on: SW-620
MCF7 = tested on: MCF7
OVCAR-5 = tested on: OVCAR-5
HT-29 = tested on: HT-29
HCT-116 = tested on: HCT-116
HCT-15 = tested on: HCT-15
BT-549 = tested on: BT-549
EKVX = tested on: EKVX
NCI-H460 = tested on: NCI-H460
SF-295 = tested on: SF-295
SK-OV-3 = tested on: SK-OV-3

SMILES	GI50 (HCC 2998)	GI50 (HL-60)	GI50 (MOLT-4)	GI50 (CAKI-1)	GI50 (SNB-75)	GI50 (M14)	GI50 (SN12C)	GI50 (Malme-3M)	GI50 (MDA-MB-231)	GI50 (SW-620)	GI50 (MCF7)	GI50 (OVCAR-5)	GI50 (HT-29)	GI50 (HCT-116)	GI50 (HCT-15) [µM]	GI50 (BT-549)	GI50 (EKVX)	GI50 (NCI-H460)	GI50 (SF-295)	GI50 (SK-OV-3)
CCOC(=O)/C=C/c1cccc(F)c1	> 100 µM (inactive)	> 100 µM (inactive)	> 100 µM (inactive)	> 100 µM (inactive)	> 100 µM (inactive)	> 100 µM (inactive)	> 100 µM (inactive)	> 100 µM (inactive)	> 100 µM (inactive)	> 100 µM (inactive)	> 100 µM (inactive)	> 100 µM (inactive)	> 100 µM (inactive)	> 100 µM (inactive)	> 100	> 100 µM (inactive)	> 100 µM (inactive)	> 100 µM (inactive)		
COC(=O)c1c(OC(C)=O)ccc2c1c1c(n2Cc2ccccc2)C(=O)c2ccccc2C1=O	16.2 µM (inactive)	25.8 µM (inactive)	16.8 µM (inactive)	22 µM (inactive)	22.2 µM (inactive)	22 µM (inactive)	19.1 µM (inactive)	30 µM (inactive)	17.1 µM (inactive)		33.9 µM (inactive)	20.1 µM (inactive)	16.9 µM (inactive)	15.7 µM (inactive)	19.7	23.2 µM (inactive)	19.6 µM (inactive)	30.1 µM (inactive)	17.5 µM (inactive)	23.6 µM (inactive)
CC1OC(CC(=O)O)CC2=C1C(=O)c1c(O)cccc1C2=O (configuration not stated) [NANAOMYCIN]	0.468 µM (active)	0.016 µM (active)	0.0309 µM (active)	0.0955 µM (active)	1.5 µM (inactive)	0.14 µM (active)	0.29 µM (active)	0.203 µM (active)	0.218 µM (active)	0.0361 µM (active)	0.142 µM (active)	1.39 µM (inactive)	0.0624 µM (active)	0.0499 µM (active)	0.0538	0.116 µM (active)	0.708 µM (active)	1.74 µM (inactive)	1.08 µM (active)	4 µM (inactive)
Cc1nn(-c2ccccc2)c(C)c1/C=N/N=C1\SCC(=O)N1c1ccccc1	20.3 µM (inactive)	30.8 µM (inactive)	30.8 µM (inactive)	19.4 µM (inactive)	20.4 µM (inactive)	28.6 µM (inactive)	44.7 µM (inactive)	21.2 µM (inactive)	35 µM (inactive)	33.9 µM (inactive)	27.4 µM (inactive)	27.7 µM (inactive)	20.5 µM (inactive)	19.1 µM (inactive)	17.9	22 µM (inactive)	12.4 µM (inactive)	18.3 µM (inactive)	21.5 µM (inactive)	29.8 µM (inactive)
CCOC(=O)C(Cc1cc(OC)c(CC(C(=O)OCC)C(=O)OCC)cc1OC)C(=O)OCC	> 100 µM (inactive)	> 100 µM (inactive)	> 100 µM (inactive)	> 100 µM (inactive)	28.6 µM (inactive)	> 100 µM (inactive)	> 100 µM (inactive)	> 100 µM (inactive)	44.9 µM (inactive)	> 100 µM (inactive)	> 100 µM (inactive)	> 100 µM (inactive)	> 100 µM (inactive)	> 100 µM (inactive)	> 100	> 100 µM (inactive)	> 100 µM (inactive)	> 100 µM (inactive)	> 92.7 µM (inactive)	> 93.8 µM (inactive)
CCCCCCCCC[n+]1cccc(C2C(C(=O)OCC)=C(C)NC(C)=C2C(=O)OCC)c1	6.01 µM (inactive)	2.82 µM (inactive)	3.98 µM (inactive)	13.6 µM (inactive)	3.67 µM (inactive)	2.7 µM (inactive)	4.67 µM (inactive)	1.9 µM (inactive)	2.97 µM (inactive)	4.26 µM (inactive)	2.6 µM (inactive)	10.7 µM (inactive)	3.96 µM (inactive)	4 µM (inactive)	16	1.71 µM (inactive)	11.9 µM (inactive)	5.7 µM (inactive)	17 µM (inactive)	11.3 µM (inactive)
Cc1nc(C)c(N2CCN(C#N)CC2)c(O)n1	> 100 µM (inactive)	> 100 µM (inactive)	> 100 µM (inactive)	> 100 µM (inactive)	0.0442 µM (active)	> 100 µM (inactive)	> 100 µM (inactive)	> 100 µM (inactive)	> 100 µM (inactive)	> 100 µM (inactive)	> 100 µM (inactive)		> 100 µM (inactive)	> 100 µM (inactive)	> 100	> 100 µM (inactive)	> 100 µM (inactive)	> 100 µM (inactive)	> 100 µM (inactive)	> 100 µM (inactive)
Cc1cc(S(=O)(=O)n2ccnc2Oc2ccccc2)c(SSc2cc(Cl)c(C)cc2S(=O)(=O)n2ccnc2Oc2ccccc2)cc1Cl	> 100 µM (inactive)	2.32 µM (inactive)		> 100 µM (inactive)	1.01 µM (active)	> 100 µM (inactive)	85.5 µM (inactive)	57.5 µM (inactive)	> 100 µM (inactive)	> 100 µM (inactive)	> 100 µM (inactive)	> 100 µM (inactive)	> 100 µM (inactive)	> 100 µM (inactive)	> 100	> 100 µM (inactive)	5.31 µM (inactive)	> 100 µM (inactive)		> 100 µM (inactive)
Cc1ccc(C2=Nc3c(N)nc(N)nc3NC(c3ccccc3)C2)cc1 (configuration not stated)	7.41 µM (inactive)	3.08 µM (inactive)	5.14 µM (inactive)	10.5 µM (inactive)	15.2 µM (inactive)	8.26 µM (inactive)	11.4 µM (inactive)	10.9 µM (inactive)	7.4 µM (inactive)	4.16 µM (inactive)	7.69 µM (inactive)	16.4 µM (inactive)	3.99 µM (inactive)	5.53 µM (inactive)	4.92	9.46 µM (inactive)	13.5 µM (inactive)	12.4 µM (inactive)		13.9 µM (inactive)
O=C(/C=C(\O)c1cc(-c2ccccc2)n(-c2ccccc2)n1)c1ccccc1	18.2 µM (inactive)	4.43 µM (inactive)	0.415 µM (active)	3.13 µM (inactive)		6.24 µM (inactive)	2.56 µM (inactive)	5.09 µM (inactive)	3.49 µM (inactive)	4.62 µM (inactive)	9.73 µM (inactive)	19.3 µM (inactive)	3.58 µM (inactive)	5.64 µM (inactive)	1.48	2.3 µM (inactive)	9.59 µM (inactive)	3.53 µM (inactive)	8.17 µM (inactive)	3.04 µM (inactive)
Cc1cccc2c(N)c3cccc(C(=O)NCC[N+](C)(C)Cc4sccc4[N+](=O)[O-])c3nc12	7.69 µM (inactive)	> 100 µM (inactive)	0.871 µM (active)	2.55 µM (inactive)	7.28 µM (inactive)	13.8 µM (inactive)	0.332 µM (active)	10.4 µM (inactive)	12 µM (inactive)	5.86 µM (inactive)	2.04 µM (inactive)	5.37 µM (inactive)	3.21 µM (inactive)	12.1 µM (inactive)	6.18	22 µM (inactive)	18.6 µM (inactive)		2.64 µM (inactive)	10.8 µM (inactive)
CON(C)C(=O)CNC(=O)OCC1c2ccccc2-c2ccccc21	> 100 µM (inactive)	25.5 µM (inactive)	37.9 µM (inactive)		> 100 µM (inactive)	> 100 µM (inactive)	> 100 µM (inactive)	> 100 µM (inactive)	> 100 µM (inactive)	> 100 µM (inactive)	> 100 µM (inactive)	> 100 µM (inactive)	> 100 µM (inactive)	18.6 µM (inactive)	78	> 100 µM (inactive)	> 100 µM (inactive)	> 100 µM (inactive)	> 100 µM (inactive)	> 100 µM (inactive)
C/C(=N\N=C1/C(=O)OC(c2ccccc2)=C1C(=O)c1ccccc1)c1ccc([N+](=O)[O-])cc1	47.9 µM (inactive)	35.8 µM (inactive)	19.9 µM (inactive)	48.2 µM (inactive)		65.5 µM (inactive)	49.4 µM (inactive)	37.4 µM (inactive)	79.3 µM (inactive)	46.7 µM (inactive)	26.7 µM (inactive)	72.3 µM (inactive)	73.8 µM (inactive)	91.4 µM (inactive)	23.7	25.9 µM (inactive)	36.3 µM (inactive)	56.1 µM (inactive)	45.6 µM (inactive)	85.3 µM (inactive)
Cc1csc2nc(-c3ccc([N+](=O)[O-])cc3)c(/C=N/N=C(N)N)n12	< 0.01 µM (active)	1.85 µM (inactive)		4.73 µM (inactive)	1.58 µM (inactive)	1.85 µM (inactive)	1.71 µM (inactive)	1.53 µM (inactive)	1.76 µM (inactive)	1.94 µM (inactive)	1.61 µM (inactive)	1.52 µM (inactive)	1.76 µM (inactive)	1.81 µM (inactive)	0.791	0.189 µM (active)	1.39 µM (inactive)	1.79 µM (inactive)	1.74 µM (inactive)	1.69 µM (inactive)
O=C1CSC(c2cccc(Cl)c2)N1c1ccc(-c2ccc(-n3c(-c4ccccc4)nc4ccccc4c3=O)cc2)cc1 (configuration not stated)	15.1 µM (inactive)	21.8 µM (inactive)	20.1 µM (inactive)	> 100 µM (inactive)		53.6 µM (inactive)	62.4 µM (inactive)	46 µM (inactive)	50.6 µM (inactive)	> 100 µM (inactive)	30.8 µM (inactive)	64.6 µM (inactive)	38.9 µM (inactive)	45.6 µM (inactive)	33.5	28.5 µM (inactive)	59 µM (inactive)	32.9 µM (inactive)	51.8 µM (inactive)	> 100 µM (inactive)
